Patent publication US6608103B2, “Inhibitor for neovasculation, cell multiplication, lumen formation and FGF” (Fuji Chemical Industry Co., Ltd., priority 2001, dated 2003)
“Also recorded” adds a separate entry of the source.

Assays:
Type in all cases: cell-based, bovine
BAEC [1] = assay: Effects of tocotrienols on multiplication of BAEC, MTT assay; details: for inhibitory action against cell multiplication: Table 1; for Absorbance: MTT
Experimental: Normal bovine aortic endothelial cells (BAEC) were manufactured by Cell Systems Co., and purchased through Dainippon Seiyaku Co., Ltd.
A cell suspension was prepared by adding the cells to MEM (Sigma Chemical Co.) containing 10 v/v (%) fetal bovine serum (FBS), 20 IU/ml penicillin and 20 IU/ml streptomycin (MEM+10% FBS) in a concentration of 1×10^5 cells/ml, and cultured in a 5% CO2 incubator at 37° C. by using a 60 mm dish coated with type I collagen with subculturing every 2 to 3 days.
Each of the above samples was added to MEM containing 2% (v/v) FBS, 20 IU/ml penicillin and 20 IU/ml streptomycin (MEM+2% FBS), and subjected to testing.
Effects of tocotrienols on the multiplication of BAEC were examined by using MTT assay.
(§1) Each one microplate was taken out after 0, 24, 48 or 96 hours from placing the culture medium containing a sample. In the case of the microplate taken out after 96 hours, the culture medium was once changed after 48 hours. 3 mg/ml MTT solution PBS (−) was put in each well in an amount of 50 μl/well, and incubated for 3 hours in a CO2 incubator. After filling each well with phosphate buffered saline (PBS(−)), liquid in each well was evacuated, and isopropyl alcohol containing 0.04 mol/l HCL was put in each well in an amount of 200 μl/well. The microplates were allowed to stand overnight in a dark place, and then, absorbance at 595 nm and 655 nm (dual) was measured by a microplate reader.
In the case of Control group A, no sample was added.

BAEC [2] = assay: Inhibition against lumen formation induced by FGF; parameters: key to Lumen Formation: ↑: Accelerated; /: Tendency to increase; No change; ↓: Inhibited; ↓↓: Strongly inhibited; details: for Lumen Formation: summary
Experimental: (§2) Eight parts by volume of “Vitrogen Collagen” (Collagen Co.), 1 part by volume of 0.1 N NaOH and 1 part by volume of ×10 MEM (GIBCO BRL) were placed in a tube, and mixed quickly in an ice bath. The culture solution was removed by suction, and 0.5 ml/well of the above mixture containing collagen was pipetted into each well. The microplate was placed in a CO2 incubator for about 30 minutes to gelatinize it. 1.5 ml of a medium (MEM | 2% FBS) containing a sample was added, and continued to incubate while changing the medium every second day.
(§3) The variation of cells were observed by a microscope by taking a photograph, and lumen formation was evaluated by counting the number of branches of cells forming lumen.
The test was carried out similar to Examples 12-14, wherein FGF was added together with each tocotrienol. In the case of Control group E, no sample was added. […]

BAEC [3] = assay: Neovasculation / lumen formation of BAEC between two layers of type I collagen gel
Experimental: BAEC was cultured between two layers of type I collagen gel, and a lumen-like netting structure formed therebetween was evaluated.
as §2, §3
The inhibition test against lumen formation was carried out in the same manner as Example 15, except that α-tocopherol was substituted for DL-α-tocotrienol.

BAEC [4] = assay: Inhibitory action against FGF activity, MTT assay on BAEC with FGF 20 ng/ml; parameters: key to Cell Multiplication: ↑: Accelerated; /: Tendency to increase; No change; ↓: Inhibited; ↓↓: Strongly inhibited; details: for Absorbance: MTT; for Cell Multiplication: summary
Experimental: The fibroblast growth factor sample was prepared by dissolving a commercial FGF (Sigma Chemical Co.) in MEM (Sigma Chemical Co.)
as §1
In the case of Control group B, no sample was added.

BAEC [5] = assay: Cell multiplication of BAEC, survival rate of cells using WST-1; details: for Survival Rate of Cells (% of control): 24 hours, WST-1; for IC50: determined from the graph of FIG. 1 (abscissa μM), read-out: median growth inhibition concentration (IC50)
Experimental: Influence of tocotrienols on cell multiplication of BAEC was examined in various concentrations. The cell multiplication was evaluated by determining the survival rate of cells using WST-1, which makes it possible to conduct high sensitivity measurement, instead of conventional MTT.
As a blank, the culture medium alone was incubated without adding cells. […] The microplate was taken out after 24 hours from placing the culture medium containing a sample. 10 μl/well of WST-1 solution was added to each well, and incubated in a CO2 incubator. After 3 hours, absorbance at 450 nm and 655 nm (dual) of each well was measured by a microplate reader.
The samples employed were DL-α-tocotrienol, DL-γ-tocotrienol and DL-δ-tocotrienol. In the case of Control group I, no sample was added.
The survival rate of cells was determined by the following formula:
Survival Rate of Cells=(S−B)/(C−B)×100(%)
The results of Table 10 were made in a graph shown in FIG. 1, and median growth inhibition concentration (IC50) was determined from the graph. In the figure, the numbers on the ordinate indicate the survival rate of cells (% of control), and the numbers on the abscissa indicate concentration (μM). ● is DL-α-tocotrienol, ▪ is DL-β-tocotrienol, Δ is DL-γ-tocotrienol, and X is DL-δ-tocotrienol, respectively.

[6] = FGF (20 ng/ml) + sample (100 μM)
[7] = FGF (20 ng/ml) + sample (10 μM)
[8] = 0 hr, FGF 20 ng/ml + sample 10 μM
[9] = 24 hrs, FGF 20 ng/ml + sample 10 μM
[10] = 48 hrs, FGF 20 ng/ml + sample 10 μM
[11] = 96 hrs, FGF 20 ng/ml + sample 10 μM

Cc1c(C)c2c(c(C)c1O)CC[C@@](C)(CCC[C@H](C)CCC[C@H](C)CCCC(C)C)O2 [α-Tocopherol, α-tocopherol, reference compound]
inhibitory action against cell multiplication (BAEC [1]; 100 μM): does not exhibit inhibitory action
Absorbance (BAEC [1]; 0 hr, sample 100 μM): 0.092 ± 0.003
Absorbance (BAEC [1]; 24 hrs, sample 100 μM): 0.140 ± 0.003
Absorbance (BAEC [1]; 48 hrs, sample 100 μM): 0.268 ± 0.004
Absorbance (BAEC [1]; 96 hrs, sample 100 μM): 0.520 ± 0.012
inhibition of lumen formation induced by FGF (BAEC [2]; 100 μM + FGF 20 ng/ml): not found
Number of Cells Forming Lumen/cm^2 (BAEC [2]; sample 100 μM + FGF 20 ng/ml): 25.25 ± 2.10 /cm^2
Lumen Formation (BAEC [2]; [6]): →
inhibition of lumen formation (BAEC [3]; 100 μM): did not inhibit lumen formation
Absorbance (BAEC [4]; 0 hr, FGF 20 ng/ml + sample 100 μM): 0.045 ± 0.002
Absorbance (BAEC [4]; 24 hrs, FGF 20 ng/ml + sample 100 μM): 0.080 ± 0.004
Absorbance (BAEC [4]; 48 hrs, FGF 20 ng/ml + sample 100 μM): 0.242 ± 0.014
Absorbance (BAEC [4]; 96 hrs, FGF 20 ng/ml + sample 100 μM): 0.360 ± 0.020
Cell Multiplication (BAEC [4]; [6]): ↑

CC(C)=CCC/C(C)=C/CC/C(C)=C/CC[C@]1(C)CCc2c(C)c(O)c(C)c(C)c2O1 (racemic) [DL-α-Tocotrienol, α-tocotrienol]
Absorbance (BAEC [1]; 0 hr, sample 10 μM): 0.090 ± 0.003
Absorbance (BAEC [1]; 24 hrs, sample 10 μM): 0.141 ± 0.008
Absorbance (BAEC [1]; 48 hrs, sample 10 μM): 0.271 ± 0.010
Absorbance (BAEC [1]; 96 hrs, sample 10 μM): 0.382 ± 0.014
inhibition of lumen formation induced by FGF (BAEC [2]; 10 μM + FGF 20 ng/ml): inhibited the lumen formation induced by FGF
Number of Cells Forming Lumen/cm^2 (BAEC [2]; sample 10 μM + FGF 20 ng/ml): 25.25 ± 1.55 /cm^2
Lumen Formation (BAEC [2]; [7]): →
Survival Rate of Cells (% of control) (BAEC [5]; 25 μM): 111.0 ± 6.8 % of control
Survival Rate of Cells (% of control) (BAEC [5]; 30 μM): 115.8 ± 9.2 % of control
Survival Rate of Cells (% of control) (BAEC [5]; 35 μM): 67.3 ± 11.6 % of control
Survival Rate of Cells (% of control) (BAEC [5]; 40 μM): 39.1 ± 12.7 % of control
Survival Rate of Cells (% of control) (BAEC [5]; 45 μM): 6.9 ± 5.9 % of control
IC50 (BAEC [5]): 38 µM
inhibition of lumen formation (BAEC [3]; 10 μM): equivalent to the control group
inhibition of lumen formation (BAEC [3]; 50 μM): completely inhibited formation
Number of Cells Forming Lumen/cm^2 (BAEC [3]; Table 4, 10 μM): 39.25 ± 1.84 /cm^2
Number of Cells Forming Lumen/cm^2 (BAEC [3]; Table 4, 30 μM): 31.75 ± 1.25 /cm^2
Number of Cells Forming Lumen/cm^2 (BAEC [3]; Table 4, 50 μM): 0.00 ± 0.00 /cm^2
Number of Cells Forming Lumen/cm^2 (BAEC [3]; Table 4, 100 μM): 39.25 ± 2.17 /cm^2
Absorbance (BAEC [4]; [8]): 0.044 ± 0.002
Absorbance (BAEC [4]; [9]): 0.096 ± 0.004
Absorbance (BAEC [4]; [10]): 0.290 ± 0.010
Absorbance (BAEC [4]; [11]): 0.328 ± 0.018
Cell Multiplication (BAEC [4]; [7]): ↑

CC(C)=CCC/C(C)=C/CC/C(C)=C/CC[C@]1(C)CCc2cc(O)cc(C)c2O1 (racemic) [DL-δ-Tocotrienol, δ-tocotrienol]
inhibitory action against cell multiplication (BAEC [1]; 10 μM): remarkable inhibitory action
Absorbance (BAEC [1]; 0 hr, sample 10 μM): 0.103 ± 0.001
Absorbance (BAEC [1]; 24 hrs, sample 10 μM): 0.004 ± 0.000
Absorbance (BAEC [1]; 48 hrs, sample 10 μM): 0.003 ± 0.000
Absorbance (BAEC [1]; 96 hrs, sample 10 μM): 0.002 ± 0.000
inhibition of lumen formation induced by FGF (BAEC [2]; 10 μM + FGF 20 ng/ml): inhibited the lumen formation completely; also recorded: exhibit inhibitory action against lumen formation
Number of Cells Forming Lumen/cm^2 (BAEC [2]; sample 10 μM + FGF 20 ng/ml): 0.00 ± 0.00 /cm^2
Lumen Formation (BAEC [2]; [7]): ↓↓
Survival Rate of Cells (% of control) (BAEC [5]; 2 μM): 93.0 ± 6.8 % of control
Survival Rate of Cells (% of control) (BAEC [5]; 4 μM): 109.4 ± 8.0 % of control
Survival Rate of Cells (% of control) (BAEC [5]; 6 μM): 0.9 ± 1.3 % of control
Survival Rate of Cells (% of control) (BAEC [5]; 8 μM): 5.8 ± 4.5 % of control
Survival Rate of Cells (% of control) (BAEC [5]; 10 μM): 0.4 ± 0.9 % of control
IC50 (BAEC [5]): 5.5 µM
inhibition of lumen formation (BAEC [3]; 10 μM): inhibited lumen formation completely
Number of Cells Forming Lumen/cm^2 (BAEC [3]; Table 4, 10 μM): 0.00 ± 0.00 /cm^2
Absorbance (BAEC [4]; [8]): 0.040 ± 0.002
Absorbance (BAEC [4]; [9]): 0.003 ± 0.000
Absorbance (BAEC [4]; [10]): 0.003 ± 0.000
Absorbance (BAEC [4]; [11]): 0.003 ± 0.000
Cell Multiplication (BAEC [4]; [7]): ↓↓

CC(C)=CCC/C(C)=C/CC/C(C)=C/CC[C@]1(C)CCc2c(C)c(O)cc(C)c2O1 (racemic) [DL-β-Tocotrienol, β-tocotrienol]
inhibitory action against cell multiplication (BAEC [1]; 10 μM): remarkable inhibitory action
Absorbance (BAEC [1]; 0 hr, sample 10 μM): 0.084 ± 0.002
Absorbance (BAEC [1]; 24 hrs, sample 10 μM): 0.029 ± 0.004
Absorbance (BAEC [1]; 48 hrs, sample 10 μM): 0.39 ± 0.007
Absorbance (BAEC [1]; 96 hrs, sample 10 μM): 0.011 ± 0.002
inhibition of lumen formation induced by FGF (BAEC [2]; 10 μM + FGF 20 ng/ml): inhibited the lumen formation completely; also recorded: exhibit inhibitory action against lumen formation
Number of Cells Forming Lumen/cm^2 (BAEC [2]; sample 10 μM + FGF 20 ng/ml): 0.00 ± 0.00 /cm^2
Lumen Formation (BAEC [2]; [7]): ↓↓
Survival Rate of Cells (% of control) (BAEC [5]; 2 μM): 89.4 ± 5.1 % of control
Survival Rate of Cells (% of control) (BAEC [5]; 4 μM): 97.8 ± 7.9 % of control
Survival Rate of Cells (% of control) (BAEC [5]; 6 μM): 57.1 ± 5.9 % of control
Survival Rate of Cells (% of control) (BAEC [5]; 8 μM): 5.6 ± 5.4 % of control
Survival Rate of Cells (% of control) (BAEC [5]; 10 μM): 0.0 ± 0.0 % of control
IC50 (BAEC [5]): 6.5 µM
Absorbance (BAEC [4]; [8]): 0.042 ± 0.002
Absorbance (BAEC [4]; [9]): 0.036 ± 0.003
Absorbance (BAEC [4]; [10]): 0.055 ± 0.005
Absorbance (BAEC [4]; [11]): 0.039 ± 0.004
Cell Multiplication (BAEC [4]; [7]): ↓↓
